In article PMC3340011 (Biophysical Chemistry, 2011):
“Also recorded” adds a separate entry of the source.

Columns and labels:
[1] = test system: CaM1–148, sites I and II (N-domain); assay: Fluorescence-monitored equilibrium Ca^2+ titration, sites I and II of CaM1–148; assay type: binding, rat; conditions: for ΔΔG2 = ΔG2^app(CaM+CaV1.2p) − ΔG2^app(CaM): CaM1–148, sites I and II; for effect on Ca^2+-binding affinity of N-domain (in words): compared with IQ1644
[2] = test system: CaM1–80, sites I and II; assay: Fluorescence-monitored equilibrium Ca^2+ titration, sites I and II of CaM1–80; assay type: binding, rat
[3] = test system: CaM76–148, sites III and IV; assay type: binding, rat
[4] = test system: CaM1–148, sites III and IV (C-domain); assay: Fluorescence-monitored equilibrium Ca^2+ titration, sites III and IV of CaM1–148; assay type: binding, rat; conditions: for ΔΔG2 = ΔG2^app(CaM+CaV1.2p) − ΔG2^app(CaM): CaM1–148, sites III and IV
[5] = molecular target: CaM76–148 (C-domain of calmodulin) (Rattus norvegicus, UniProt P0DP29); assay: Fluorescence anisotropy titration of Fl-Cav1.2p with CaM C-domain; assay type: binding
[6] = test system: CaM1–148, sites III and IV (C-domain); conditions: previous study; cited from earlier work
[7] = test system: CaM1–148, sites I and II (N-domain); conditions: previous study; cited from earlier work
[8] = molecular target: CaM1–80 (N-domain of calmodulin) (Rattus norvegicus, UniProt P0DP29); assay: Fluorescence anisotropy titration of Fl-Cav1.2p with CaM N-domain; assay type: binding; conditions: pre-IQ region, calcium-saturated
[9] = Calcium dissociation from fluorescent indicator dye; assay type: binding
[10] = no peptide, 2 μM CaM, pH 7.4, 22 °C, average ± SD
[11] = no peptide, pH 7.4, 22 °C, average ± SD

Compound	ΔΔG2 = ΔG2^app(CaM+CaV1.2p) − ΔG2^app(CaM) [1] [kcal/mol]	effect on Ca^2+-binding affinity of N-domain (in words) [1]	ΔΔG2 = ΔG2^app(CaM+CaV1.2p) − ΔG2^app(CaM) [2] [kcal/mol]	ΔΔG2 = ΔG2^app(CaM+CaV1.2p) − ΔG2^app(CaM) [3] [kcal/mol]	ΔΔG2 = ΔG2^app(CaM+CaV1.2p) − ΔG2^app(CaM) [4] [kcal/mol]	other results
CC[C@H](C)[C@H](NC(=O)[C@H](CC(C)C)NC(=O)[C@H](Cc1ccccc1)NC(=O)[C@@H](NC(=O)[C@H](C)N)[C@@H](C)O)C(=O)N[C@@H](CCC(N)=O)C(=O)N[C@@H](CCC(=O)O)C(=O)N[C@@H](Cc1ccc(O)cc1)C(=O)N[C@@H](Cc1ccccc1)C(=O)N[C@@H](CCCNC(=N)N)C(=O)N[C@@H](CCCCN)C(=O)N[C@@H](Cc1ccccc1)C(=O)N[C@@H](CCCCN)C(=O)N[C@@H](CCCCN)C(=O)N[C@@H](CCCNC(=N)N)C(=O)N[C@@H](CCCCN)C(=O)N[C@@H](CCC(=O)O)C(=O)N[C@@H](CCC(N)=O)C(=O)NCC(=O)N[C@@H](CC(C)C)C(=O)N[C@H](C(=O)NCC(=O)N[C@@H](CCCCN)C(=O)N1CCC[C@H]1C(=O)N[C@@H](CO)C(=O)N[C@@H](CCC(N)=O)C(=O)O)C(C)C [IQ′1650]	-1.24	much weaker effect	-0.82	-3.35	-3.63	fold more favorable affinity for CaM76–148 than CaM1–80 ([5]; Ca^2+-saturated): about 100 fold; Kd ([5]; Kd (CaM dissociation from Fl-Cav1.2p), calcium-saturated, CaM76–148, 10 mM CaCl2, pH 7.4, 22 °C, limit): ≤ 10 nM
CaM1–80: N-domain fragment of calmodulin, residues 1–80						ΔG1^app (calcium binding) [2, 10]: -5.92 ± 0.38 kcal/mol; ΔG2^app (calcium binding) [2, 10]: -12.76 ± 0.09 kcal/mol
CaM76–148: C-domain fragment of calmodulin, residues 76–148						ΔG1^app (calcium binding) [3, 11]: -5.45 ± 0.51 kcal/mol; ΔG2^app (calcium binding) [3, 11]: -14.66 ± 0.13 kcal/mol
H-ELRAIIKKIWKRTSMKLLDQVV-OH [C1614]	-1.10	much weaker effect	-1.15	-2.95	-2.94	effect on Ca^2+-binding affinity of C-domain of CaM1–148 [6]: increased the Ca^2+-binding affinity of the C-domain of CaM1–148; domain preference, (Ca^2+)2-C-domain ([5]; pre-IQ region, calcium-saturated): preferred C1614; effect on Ca^2+-binding affinity of N-domain of CaM1–148 [7]: there was not an effect on the N-domain
H-FNATLFALVRTALRIKTEGNLE-OH [A1588]	-2.99		-1.55	-0.72	-1.05	effect on Ca^2+-binding affinity of C-domain (in words) [4]: weak effect; domain preference, (Ca^2+)2-N-domain [8]: bound preferentially to A1588; also recorded: higher affinity for CaM1–80 than for CaM76–148; also recorded: binding the N-domain of CaM more favorably than the C-domain
XRhod5F						fold lower Kd for calcium (vs Oregon Green) [9]: ~ 20 fold
